Experimental data reported in patent US8450461B2, “Risperidone immunoassay” (Saladax Biomedical Inc., priority 2010, dated 2013).

Assays:
Assay type in all cases: binding, mouse
[1] = system: polyclonal antibodies to risperidone, bleed G2M1; assay: Indirect competitive microtiter plate immunoassay (ELISA), cross-reactivity, polyclonal anti-serum bleed G2M1; conditions: polyclonal antibodies (Example 6a), relative to risperidone = 100%
Method: (§1) Ten female BALB/c mice were immunized i.p. with 100 μg/mouse of risperidone [9]-KLH immunogen, as prepared in Example 4, emulsified in Complete Freund's Adjuvant. The mice were boosted once, four weeks after the initial injection with 100 μg/mouse of the same immunogen emulsified in Incomplete Freund's Adjuvant. Twenty days after the boost, test bleeds containing polyclonal antibodies from each mouse were obtained by orbital bleed. The test bleeds were fractionated by centrifugation to yield anti-sera. The anti-sera from these test bleeds, which contain polyclonal antibodies to risperidone [9]-KLH immunogen, were evaluated in Examples 8a and 9.
(§2) The ELISA method for measuring risperidone concentrations was performed in polystyrene microtiter plates (Nunc MaxiSorp F8 Immunomodules) optimized for protein binding and containing 96 wells per plate. Each well was coated with risperidone [9]-BSA conjugate (prepared as in Example 5a) by adding 300 μL of risperidone [9]-BSA conjugate at 10 μg/mL in 0.05M sodium carbonate, pH 9.6, and incubating for three hours at room temperature. The wells were washed with 0.05M sodium carbonate, pH 9.6 and then were blocked with 375 μL of 5% sucrose, 0.2% sodium caseinate solution for 30 minutes at room temperature. After removal of the post-coat solution the plates were dried at 37° C. overnight.
as §2, with “[14]-BSA” for “[9]-BSA”, “5b)” for “5a)”
(§3) This procedure is to find the dilution of antibody or anti-serum to be tested for displacement as in Example 9. The ELISA method for screening risperidone antibodies (produced in Example 6) was performed with the microtiter plates that were sensitized with risperidone-BSA conjugate prepared in Examples 7a and 7b. The antibody screening assay was performed by diluting the murine serum from test bleeds (as in Example 6) containing polyclonal risperidone antibodies to 1:2,000, 1:[…] and 1:54,000 (volume/volume) in phosphate buffered saline containing 0.1% BSA and 0.01% thimerosal. […] (volume/volume) in phosphate buffered saline containing 0.1% BSA and 0.01% thimerosal. […]

[2] = system: polyclonal antibodies to risperidone, bleed G2M5; assay: Indirect competitive microtiter plate immunoassay (ELISA), cross-reactivity, polyclonal anti-serum bleed G2M5; conditions: polyclonal antibodies (Example 6a), relative to risperidone = 100%
Method: as §1, §2
as §2, with “[14]-BSA” for “[9]-BSA”, “5b)” for “5a)”
as §3

[3] = system: polyclonal antibodies to risperidone, bleed G1M1; assay: Indirect competitive microtiter plate immunoassay (ELISA), cross-reactivity, polyclonal anti-serum bleed G1M1; conditions: polyclonal antibodies (Example 6a), relative to risperidone = 100%
Method: as §1, §2
as §2, with “[14]-BSA” for “[9]-BSA”, “5b)” for “5a)”
as §3

[4] = system: polyclonal antibodies to risperidone, bleed G1M3; assay: Indirect competitive microtiter plate immunoassay (ELISA), cross-reactivity, polyclonal anti-serum bleed G1M3; conditions: polyclonal antibodies (Example 6a), relative to risperidone = 100%
Method: as §1, §2
as §2, with “[14]-BSA” for “[9]-BSA”, “5b)” for “5a)”
as §3

[5] = system: monoclonal antibody to risperidone 5D5-3; assay: Indirect competitive microtiter plate immunoassay (ELISA), cross-reactivity, monoclonal antibody 5D5-3; conditions: monoclonal antibody number 5D5-3 (Example 6b); relative to risperidone = 100%
Method: (§4) Mice from example 6a that were immunized with risperidone [9]-KLH prepared in 4 were used to produce monoclonal antibodies. For monoclonal antibodies starting three days before the fusion, the mice were injected i.p. with 400 μg (3 days before fusion), 200 μg (2 days before fusion), and 200 μg (1 day before fusion) of risperidone [9]-KLH in PBS/DMSO prepared in example 4. Spleen cells were isolated from the selected mice and fused with 2×10^7 SP2/0 cells with 50% polyethylene glycol 1500 according to the method of Coligan, J. E. et al., eds., Current Protocols in Immunology, 2.5.1-2.5.8, (1992), Wiley & Sons, NY. The fused cells were plated on ten 96-well plates in DMEM/F12 supplemented with 20% FetalClone I, 2% L-glutamine (100 mM) and 2% 50× HAT. Two to three weeks later, the hybridoma supernatant was assayed for the presence of anti-risperidone antibodies by ELISA (as in example 8b). Cells from the wells that gave positive ELISA results (example 8b) were expanded to 24 well plates. Clones positive by ELISA were subcloned twice by limiting dilution according to the method disclosed in Coligan, J. E. et al., eds., Current Protocols in Immunology, 2.5.8-2.5.17, 1992, Wiley & Sons, NY. Hybridoma culture supernatants containing monoclonal antibody from selected subclones were confirmed for risperidone binding by a competitive ELISA (example 9). […]

[6] = system: monoclonal antibody to risperidone 4B9-21; assay: Indirect competitive microtiter plate immunoassay (ELISA), cross-reactivity, monoclonal antibody 4B9-21; conditions: monoclonal antibody number 4B9-21 (Example 6b); relative to risperidone = 100%
Method: as §4

[7] = system: antibodies to risperidone (pool of antibodies); assay: Competitive immunoassay / screening with the pool of antibodies to risperidone
Method: The present invention relates to novel antibodies and monoclonal antibodies to risperidone and paliperidone. The antisera of the invention can be conveniently produced by immunizing host animals with the immunogens of this invention. Suitable host animals include rodents, such as, for example, mice, rats, rabbits, guinea pigs and the like, or higher mammals such as goats, sheep, horses and the like. […]
The ELISA method for determining IC50 values and cross-reactivity was performed with the microtiter plates that were sensitized with risperidone-BSA conjugates as described in Examples 7a and 7b. […] The assays were all performed by diluting the concentration of the anti-sera or monoclonal antibodies in each of the wells to the titer determined in Example 8a. […] Following the incubation for color development, 50 μL of stop solution (1.5% sodium fluoride in di H2O) was added to each well to stop the color development and after 20 seconds of shaking the absorbance was determined at 650 nm (Molecular Devices Plate Reader). The amount of antibody in a well was proportional to the absorbance measured and inversely proportional to the amount of risperidone in the sample. The IC50's of risperidone and paliperidone were determined by constructing dose-response curves with the absorbance in the wells plotted versus analyte concentration in the wells. […]

| binding of the antibodies to the compound (screening) ([7]; antibodies from immunized mice screened against the compound) | SMILES | Cross-reactivity of competitive immunoassay [1] | Cross-reactivity of competitive immunoassay [2] | Cross-reactivity of competitive immunoassay [3] | Cross-reactivity of competitive immunoassay [4] | Cross-reactivity of competitive immunoassay [5] | Cross-reactivity of competitive immunoassay [6] | percent cross-reactivities relative to risperidone ([7]; measured with this pool of antibodies, ratio of IC50 risperidone to IC50 paliperidone) |
| --- | --- | --- | --- | --- | --- | --- | --- | --- |
| – | Fc1ccc2c(C3CCNCC3)noc2c1 [N-dealkyl-risperidone] | 0.09% | 0.1% | 0.02% | 0.07% | – | – | – |
| – | Cc1nc2n(c(=O)c1CCN1CCC(c3noc4cc(F)ccc34)CC1)CCCC2 [Risperidone, risperidone] | 100% | 100% | 100% | 100% | 100% | 100% | – |
| substantial binding | Cc1nc2n(c(=O)c1CCN1CCC(c3noc4cc(F)ccc34)CC1)CCCC2O (stereo not shown) [Paliperidone, paliperidone] | 98% | 81% | 81% | 80% | – | – | 100±20% |
| – | Cc1nc2n(c(=O)c1CCN1CCC(c3noc4cc(F)ccc34)CC1)CC(O)CC2 (stereo not shown) [7-hydroxy-risperidone] | 65% | 69% | 50% | 66% | 39% | 30% | – |
